The text below walks through data of ChEMBL document CHEMBL5465560, “Selectivity Literature for EUbOPEN Chemogenomic Library” (2024).

In experiment [1] the target is T1, Cyclin-dependent kinase 11A (Homo sapiens) (UniProt Q9UQ88).
T1 sequence (whole entry): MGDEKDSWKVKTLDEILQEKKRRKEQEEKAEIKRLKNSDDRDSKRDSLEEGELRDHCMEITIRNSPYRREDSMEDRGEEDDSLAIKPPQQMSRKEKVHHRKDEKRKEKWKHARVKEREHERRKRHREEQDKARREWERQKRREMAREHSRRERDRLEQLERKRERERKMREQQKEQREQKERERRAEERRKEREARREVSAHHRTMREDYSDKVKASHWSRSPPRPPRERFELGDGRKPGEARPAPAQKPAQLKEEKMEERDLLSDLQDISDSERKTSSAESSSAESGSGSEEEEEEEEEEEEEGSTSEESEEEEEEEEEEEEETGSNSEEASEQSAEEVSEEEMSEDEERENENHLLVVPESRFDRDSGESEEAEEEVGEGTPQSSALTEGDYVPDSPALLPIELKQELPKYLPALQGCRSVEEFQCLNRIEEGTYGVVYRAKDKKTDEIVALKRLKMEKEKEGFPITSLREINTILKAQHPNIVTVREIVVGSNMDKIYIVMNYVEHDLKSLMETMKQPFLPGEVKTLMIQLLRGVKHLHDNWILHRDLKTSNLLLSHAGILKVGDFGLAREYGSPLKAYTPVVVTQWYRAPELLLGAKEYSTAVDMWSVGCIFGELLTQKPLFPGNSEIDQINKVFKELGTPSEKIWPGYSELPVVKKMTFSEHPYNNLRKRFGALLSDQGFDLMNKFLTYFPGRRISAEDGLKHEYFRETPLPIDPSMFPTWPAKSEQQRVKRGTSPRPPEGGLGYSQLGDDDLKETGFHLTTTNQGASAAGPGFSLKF
Briefly: Selectivity interaction (Kinase panel (KiNativ target engagement assay in Jurkat cells)) EUB0001635a CDK11A. The following applies: Selectivity number of off-targets 0.0, Selectivity number of targets 233.0, Source Knowledge https://www.sciencedirect.com/science/article/pii/S2451945619300674?via%3Dihub, at 1 µM. In kind it is cell-based.

The target in experiment [2] is Tyrosine-protein kinase Blk (Homo sapiens) (UniProt P51451). Briefly: Selectivity interaction (SelectScreen profiling (Invitrogen)) EUB0000607a BLK. The following applies: at 2 µM.
Chain of Tyrosine-protein kinase Blk (Homo sapiens) (P51451 2-505 limits assumed): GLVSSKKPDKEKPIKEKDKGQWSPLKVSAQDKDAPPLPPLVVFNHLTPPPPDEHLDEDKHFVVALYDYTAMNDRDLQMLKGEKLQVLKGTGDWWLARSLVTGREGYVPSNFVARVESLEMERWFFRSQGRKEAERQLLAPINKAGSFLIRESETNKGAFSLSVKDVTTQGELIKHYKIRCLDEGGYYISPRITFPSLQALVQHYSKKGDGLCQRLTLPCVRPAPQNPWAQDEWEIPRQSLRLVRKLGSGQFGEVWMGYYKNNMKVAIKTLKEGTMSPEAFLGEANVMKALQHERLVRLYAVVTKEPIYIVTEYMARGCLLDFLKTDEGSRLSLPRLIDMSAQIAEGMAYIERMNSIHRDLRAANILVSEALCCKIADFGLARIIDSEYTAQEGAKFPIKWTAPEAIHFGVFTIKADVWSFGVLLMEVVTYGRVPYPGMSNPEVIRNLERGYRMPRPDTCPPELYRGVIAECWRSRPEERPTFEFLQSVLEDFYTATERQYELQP
Experiment [3] has as its target Ribosomal protein S6 kinase beta-1 (Homo sapiens, UniProt P23443). Particulars: at 10 µM.
For experiment [4], the target named is Serine/threonine-protein kinase 38-like (Homo sapiens) (UniProt Q9Y2H1). Briefly: Selectivity interaction (KinomeScan (DiscoverX)) EUB0001079a STK38L. The following applies: at 1 µM.
Chain of Serine/threonine-protein kinase 38-like (Homo sapiens) (Q9Y2H1 2-464 limits assumed): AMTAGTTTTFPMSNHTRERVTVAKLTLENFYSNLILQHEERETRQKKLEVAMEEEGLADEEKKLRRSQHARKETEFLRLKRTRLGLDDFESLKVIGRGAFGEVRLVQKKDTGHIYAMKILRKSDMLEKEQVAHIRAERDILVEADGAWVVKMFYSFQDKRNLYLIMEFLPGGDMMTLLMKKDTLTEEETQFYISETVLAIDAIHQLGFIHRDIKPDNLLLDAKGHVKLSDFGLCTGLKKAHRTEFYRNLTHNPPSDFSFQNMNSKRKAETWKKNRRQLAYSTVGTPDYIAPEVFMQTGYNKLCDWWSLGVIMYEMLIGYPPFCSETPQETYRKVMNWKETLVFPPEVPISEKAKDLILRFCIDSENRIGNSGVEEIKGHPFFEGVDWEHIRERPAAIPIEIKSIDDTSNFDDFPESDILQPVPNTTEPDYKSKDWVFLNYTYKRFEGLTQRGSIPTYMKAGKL
Experiment [5] has as its target T2, Inhibitor of nuclear factor kappa-B kinase subunit epsilon (Homo sapiens) (UniProt Q14164).
T2 sequence (whole entry): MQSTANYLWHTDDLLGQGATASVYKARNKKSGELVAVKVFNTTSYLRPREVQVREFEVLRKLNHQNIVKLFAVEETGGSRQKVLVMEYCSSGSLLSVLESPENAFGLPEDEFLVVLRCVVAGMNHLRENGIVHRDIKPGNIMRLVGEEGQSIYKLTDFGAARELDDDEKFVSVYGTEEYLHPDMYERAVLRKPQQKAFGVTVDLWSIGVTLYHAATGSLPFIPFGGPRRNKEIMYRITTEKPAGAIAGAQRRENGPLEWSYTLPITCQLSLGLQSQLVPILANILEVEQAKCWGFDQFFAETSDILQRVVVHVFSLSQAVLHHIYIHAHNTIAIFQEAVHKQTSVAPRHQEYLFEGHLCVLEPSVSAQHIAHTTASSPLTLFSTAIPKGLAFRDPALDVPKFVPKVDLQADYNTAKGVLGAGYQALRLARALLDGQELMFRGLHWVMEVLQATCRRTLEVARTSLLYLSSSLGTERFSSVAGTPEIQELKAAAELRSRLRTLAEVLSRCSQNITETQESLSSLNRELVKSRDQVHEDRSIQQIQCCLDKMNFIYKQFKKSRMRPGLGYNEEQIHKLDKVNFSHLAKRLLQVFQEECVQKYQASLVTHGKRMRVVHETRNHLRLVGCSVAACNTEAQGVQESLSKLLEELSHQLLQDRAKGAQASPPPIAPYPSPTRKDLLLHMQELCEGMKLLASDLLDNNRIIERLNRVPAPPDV
Briefly: Selectivity interaction (ActivX KiNativ screen (ex vivo kinase selectivity in human PBMCs)) EUB0001619a IKBKE. The class given is cell-based. Particulars: PBMC, at 1 µM.

Experiment [6] has as its target T3, TGF-beta receptor type-1 (Homo sapiens) (UniProt P36897).
T3 sequence (whole entry): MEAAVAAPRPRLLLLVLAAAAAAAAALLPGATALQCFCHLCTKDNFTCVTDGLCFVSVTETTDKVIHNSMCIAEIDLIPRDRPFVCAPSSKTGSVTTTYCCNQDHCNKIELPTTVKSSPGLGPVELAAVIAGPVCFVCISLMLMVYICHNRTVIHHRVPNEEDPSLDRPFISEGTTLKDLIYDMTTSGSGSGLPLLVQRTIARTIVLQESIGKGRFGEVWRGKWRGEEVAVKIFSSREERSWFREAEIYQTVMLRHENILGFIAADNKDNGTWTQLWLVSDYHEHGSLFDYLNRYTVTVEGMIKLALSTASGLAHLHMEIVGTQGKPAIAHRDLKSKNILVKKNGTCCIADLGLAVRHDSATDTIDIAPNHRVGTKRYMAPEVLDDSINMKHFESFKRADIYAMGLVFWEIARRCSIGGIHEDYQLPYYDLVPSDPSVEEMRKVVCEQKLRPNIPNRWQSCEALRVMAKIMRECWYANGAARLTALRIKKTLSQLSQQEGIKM
Briefly: Selectivity interaction (Kinase panel (Invitrogen)) EUB0000639a TGFBR1. Particulars: at 200 nM.

The target in experiment [7] is T4, Muscarinic acetylcholine receptor M1 (Homo sapiens) (UniProt P11229).
T4 sequence (whole entry): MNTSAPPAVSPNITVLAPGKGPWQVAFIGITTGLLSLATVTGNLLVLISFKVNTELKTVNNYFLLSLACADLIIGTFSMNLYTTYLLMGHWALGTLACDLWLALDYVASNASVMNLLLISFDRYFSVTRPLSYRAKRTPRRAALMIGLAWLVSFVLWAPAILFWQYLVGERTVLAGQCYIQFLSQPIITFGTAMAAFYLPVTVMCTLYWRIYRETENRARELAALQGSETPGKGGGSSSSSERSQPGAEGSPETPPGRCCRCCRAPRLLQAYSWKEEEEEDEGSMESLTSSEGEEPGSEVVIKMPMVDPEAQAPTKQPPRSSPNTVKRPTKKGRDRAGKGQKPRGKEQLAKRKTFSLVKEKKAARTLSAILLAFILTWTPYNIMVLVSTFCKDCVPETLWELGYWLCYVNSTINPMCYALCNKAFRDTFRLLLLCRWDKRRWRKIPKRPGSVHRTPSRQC
Description: Selectivity interaction (Panel of kinases, GPCRs, ion channels and transporters (enzymatic assay)) EUB0000223bCl CHRM1.

Experiment [8] has as its target Mitogen-activated protein kinase 10 (Homo sapiens, UniProt P53779). Briefly: Selectivity interaction (KinomeScan (DiscoverX)) EUB0000595a MAPK10. Particulars: at 10 µM.

Chain of Mitogen-activated protein kinase 10 (P53779 whole entry): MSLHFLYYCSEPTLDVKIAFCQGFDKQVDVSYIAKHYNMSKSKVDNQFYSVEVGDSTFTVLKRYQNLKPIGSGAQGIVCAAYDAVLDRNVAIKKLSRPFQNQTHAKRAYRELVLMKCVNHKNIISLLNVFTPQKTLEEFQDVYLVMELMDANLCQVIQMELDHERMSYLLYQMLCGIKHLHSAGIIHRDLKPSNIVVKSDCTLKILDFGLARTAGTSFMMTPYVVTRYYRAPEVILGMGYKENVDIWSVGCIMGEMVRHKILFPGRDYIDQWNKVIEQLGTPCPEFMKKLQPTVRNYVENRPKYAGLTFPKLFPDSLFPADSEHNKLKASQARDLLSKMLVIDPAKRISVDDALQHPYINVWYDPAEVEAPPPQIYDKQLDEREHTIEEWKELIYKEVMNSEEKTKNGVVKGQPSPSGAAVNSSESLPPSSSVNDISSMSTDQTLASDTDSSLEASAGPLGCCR
Chain of Ribosomal protein S6 kinase beta-1 (P23443 whole entry, looked up): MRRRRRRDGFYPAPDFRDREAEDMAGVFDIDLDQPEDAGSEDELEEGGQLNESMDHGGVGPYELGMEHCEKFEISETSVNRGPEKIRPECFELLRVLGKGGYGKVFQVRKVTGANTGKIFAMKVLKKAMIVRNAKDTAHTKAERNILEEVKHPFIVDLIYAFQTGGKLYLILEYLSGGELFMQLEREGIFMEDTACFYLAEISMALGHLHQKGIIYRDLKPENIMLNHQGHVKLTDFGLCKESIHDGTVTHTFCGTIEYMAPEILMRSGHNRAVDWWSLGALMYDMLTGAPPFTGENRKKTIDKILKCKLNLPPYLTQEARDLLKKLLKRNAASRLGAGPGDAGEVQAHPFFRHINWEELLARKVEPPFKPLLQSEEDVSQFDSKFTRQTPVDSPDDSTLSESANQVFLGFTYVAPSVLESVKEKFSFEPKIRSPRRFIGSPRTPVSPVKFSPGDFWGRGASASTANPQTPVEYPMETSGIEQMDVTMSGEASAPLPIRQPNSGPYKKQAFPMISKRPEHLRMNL

As to `C=CC(=O)Nc1ccc(C(=O)Nc2[nH]nc3c2CN(C(=O)N[C@H](CN(C)C)c2ccccc2)C3(C)C)cc1`, the % of engagement in experiment [1] is -0.8%. For the molecule `CNC(=O)Nc1ccc(-c2nc(N3CC4CCC(C3)O4)c3cnn(C4CCC5(CC4)OCCO5)c3n2)cc1`, the % of inhibition in experiment [2] was 1%.

Turning to `Cc1cc([C@@H](C)Nc2ccccc2C(=O)O)c2nc(N3CCOCC3)cc(=O)n2c1` [AZD-6482], the % of control in experiment [3] was 72%. `Nc1cnc(N2CCc3cc(S(=O)(=O)Nc4c(F)cc(Cl)cc4F)cc(N4CCCC4=O)c32)nc1` [TP-020n] registered a % of control in experiment [4] of 42%.

In the case of `N#Cc1cccc(-c2c[nH]c3ncnc(N4CCOCC4)c23)c1`, the % of inhibition in experiment [5] is 7%. In experiment [6], `CC[C@@H]1[C@H](F)C(=O)N[C@@H]1COc1nccc2cc(C(N)=O)c(OC)cc12` [ZIMLOVISERTIB] had a % of inhibition of 27.1%. On to `COc1cc(C(=O)N2CC[C@@H](O)[C@@H](N)C2)cc2nc(-c3cc4ccccc4n3CC3CC3)n(C)c12`, for which the pXC50 in experiment [7] worked out at 5.3 M. Take `COCC(=O)NC/C=C/c1ccc2ncnc(Nc3ccc(Oc4ccc(C)nc4)c(C)c3)c2c1` [CP-724714]: the % of control in experiment [8] is 68%.
